Reference: patent US20070203118A1, “SUBSTITUTED TETRAHYDROISOQUINOLINES USED IN THE FORM OF MMP INHIBITORS, METHOD FOR THE PRODUCTION AND USE THEREOF IN THE FORM OF DRUGS” (SANOFI-AVENTIS DEUTSCHLAND GMBH, priority 2004, published 2007)

Molecular target: T1, catalytic domain of human gelatinase-A (MMP-9) (Homo sapiens, UniProt P14780)
T1 construct: Determination of the Enzymatic Activity of the Catalytic Domain of Human Gelatinase-A (MMP-9); purchased Roche, Mannheim
Experiment: Enzymatic activity of the catalytic domain of human gelatinase (MMP-9), fluorogenic substrate
Assay type: biochemical
Details: stated in the text
Experimental: Determination of the Enzymatic Activity of the Catalytic Domain of Human Gelatinase-A (MMP-9)
Activation of the proenzyme:
2 parts by volume of proenzyme were incubated with 1 part by volume of APMA solution at 37° C. for 4 hours. The APMA solution was prepared from a 10 mmol/l p-aminophenylmercuric acetate solution in 0.1 mmol/l NaOH by dilution with 3 parts by volume of Tris/HCl buffer pH 7.5 (see below). The pH was adjusted to between 7.0 and 7.5 by adding 1 mmol/l HCl. After activation of the enzyme it was diluted with the Tris/HCl buffer to a concentration of 4.2 mU/ml.
The enzymic activity was measured by incubating 10 μl of enzyme solution with 10 μl of a 3% strength (v/v) buffered dimethyl sulfoxide solution (reaction 1) for 15 minutes. The enzyme inhibitor activity was measured by incubating 10 μl of enzyme solution with 10 μl of a 3% strength (v/v) buffered dimethyl sulfoxide solution which contained the enzyme inhibitor (reaction 2).
The enzymic reaction both in the case of reaction 1 and in the case of reaction 2 was followed after addition of 10 μl of a 3% strength (v/v) aqueous dimethyl sulfoxide solution which contained 0.15 mmol/l of the substrate by fluorescence spectroscopy (328 nm (extinction)/393 nm (emission)).
The enzymic activity has been presented as increase in extinction/minute.
The effect of the inhibitor was calculated as percentage inhibition by the following formula: % inhibition=100−[(increase in extinction/minute in reaction 2)/(increase in extinction/minute in reaction 1)×100].
The IC50, which is the concentration of inhibitor which is necessary for 50% inhibition of the enzymic activity, was determined graphically by plotting the percentage inhibitions at various inhibitor concentrations.
The buffer solution contained 0.05% Brij (Sigma, Deisenhofen, Germany) and 0.1 mol/l Tris/HCl, 0.1 mol/l NaCl, 0.01 mol/l CaCl2 (pH=7.5). The enzyme solution contained 4.2 mU/ml of the enzyme domain. The substrate solution contained 0.15 mmol/l of the fluorogenic substrate (7-methoxycoumarin-4-yl)acetyl-Pro-Leu-Gly-Leu-3-(2′,4′-dinitrophenyl)-L-2,3-diaminopropionyl-Ala-Arg-NH2 (Bachem, Heidelberg, Germany).

T1 sequence (P14780 107-707 limits assumed): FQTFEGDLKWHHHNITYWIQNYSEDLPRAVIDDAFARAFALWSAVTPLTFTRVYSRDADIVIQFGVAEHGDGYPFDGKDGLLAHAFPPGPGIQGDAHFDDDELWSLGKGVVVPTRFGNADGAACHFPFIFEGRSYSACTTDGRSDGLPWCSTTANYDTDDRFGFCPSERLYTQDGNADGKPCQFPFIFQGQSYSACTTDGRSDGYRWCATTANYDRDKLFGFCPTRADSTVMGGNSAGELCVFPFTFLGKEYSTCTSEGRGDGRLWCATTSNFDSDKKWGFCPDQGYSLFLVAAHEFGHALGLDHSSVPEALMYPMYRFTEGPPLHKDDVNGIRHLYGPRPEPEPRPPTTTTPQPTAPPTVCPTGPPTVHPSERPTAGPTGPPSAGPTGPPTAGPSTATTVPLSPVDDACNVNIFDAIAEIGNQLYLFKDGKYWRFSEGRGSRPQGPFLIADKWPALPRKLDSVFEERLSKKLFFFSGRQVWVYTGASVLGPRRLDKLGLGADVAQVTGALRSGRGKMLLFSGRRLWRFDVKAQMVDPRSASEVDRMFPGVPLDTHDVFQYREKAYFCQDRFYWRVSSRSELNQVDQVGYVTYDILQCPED

Row | ratio of MMP1 to MMP9 inhibition | SMILES
1 | 60 | COc1ccc(Oc2ccc(S(=O)(=O)N3CCc4ccccc4C3C(=O)NO)cc2)cc1 (centres unmarked)
2 | 3.7 | COc1ccc(S(=O)(=O)N2CCc3ccccc3C2C(=O)NO)cc1 (centres unmarked) [reference compound]
